This passage reports IC50 results from patent publication US10519177B2, “Heterocyclic compounds and uses thereof” (Plexxikon Inc., priority 2013, dated 2019).

The target in experiment [1] is BRD4-BD12 (1-477) (Homo sapiens (Human), UniProt O60885). The experiment is described as follows: Alphascreen binding assay BRD4-BD12. To be noted: BRD4(1 2) H4; read-out: Biochemical activity (IC50 μM) BRD4(1 2) H4. The protocol:
Binding of compounds of formula (I) with bromodomain 2, 3 4 was assessed using Alphascreen binding assay. The inhibition of the interaction between bromodomain and its acetylated target protein (Filippakopoulos P et al. 2012) was measured quantitatively using recombinant BRD proteins, an acetylated Histone 4 peptide and AlphaScreen™ technology. In absence of inhibition the BRD protein bound to AlphaScreen™ nickel chelate acceptor beads can interact with the acetylated Histone 4 peptide which is immobilized by the AlphaScreen™ Streptavidin coated beads. This interaction brings donor and acceptor beads in proximity. The close proximity allows the singlet oxygen produced by laser excitation of the donor beads to reach the acceptor beads and generate a luminescence signal.
Recombinant human bromodomains containing the N-terminal bromodomain (BRD2-BD1 (71-194), BRD3-BD1 (24-144) and BRD4-BD1 (44-164)) or dual bromodomains (BRD4-BD12 (1-477), BRD4-BD12 (1-472)) were prepared and purified as described in protein expression and purification session. The peptide is human Histone H41-21K5AcK8AcK12AcK16Ac-Biotin (Anaspec CA, USA).
Protocol for BRD2, BRD3 and BRD4 assay: All components are prepared in buffer composed of 50 mM HEPES pH 7.5, 100 mM NaCl, 0.01% bovine serum albumin (“BSA”), 0.01% Triton X-100, 2 mM dithiothreitol (“DTT”). 7 μL of Bromodomain protein and 7 μL of peptide are added to wells containing 1 μL of various concentrations of test compounds of formula (I) or DMSO vehicle in an Alphaplate (PerkinElmer GA, USA) and incubated for 1 hour at room temperature. 4 μL donor and acceptor bead mixture is then added with final concentrations of 7.5 μg/ml. 30 minutes after bead addition, Alpha signal is read on the Envision spectrometer (λEx 680 nm, λEm 520-620 nm). Final concentrations of bromodomain proteins and peptide are as shown below.
All data was normalized to the mean of 16 high and 16 low control wells on each plate. A four parameter curve fit of the following formula was then applied: Y=a+(b−a)/(1+(x/c)^d) Where ‘a’ is the minimum, ‘b’ is the maximum, ‘c’ is the pIC50 and ‘d’ is the Hill slope. Protein Expression and Purification
Recombinant human bromodomains containing the N-terminal bromodomain (BRD2-BD1 (71-194), BRD3-BD1 (24-144) and BRD4-BD1 (44-164)) or dual bromodomains (BRD4-BD12 (1-477), BRD4-BD12 (1-472)) were expressed in E. coli cells (in a modified pET vector) with an N-terminal six-His tag and purified using a combination of both IMAC (Ni-affinity) and size exclusion chromatography steps.
Recombinant BRD proteins were expressed using the E. coli strain BL21-CodonPlus (DE3) (Agilent Technologies CA, USA). Cells were grown in Terrific Broth (TB) media to an OD600 of 1.2 at 37° C. at which temperature was reduced to 25° C., protein was induced with 1.0 mM ispropyl-β-D-thiogalactopyranoside (“IPTG”) for 12-18 hours and harvested by centrifugation at 8000×g for 20 minutes. Cells were re-suspended in 0.1M K2PO4 pH 8.0, 250 mM NaCl, 10% Glycerol, 0.75% NP-40, 25 mM Imidazole, 5 mM beta-mercaptoethanol (“BME”) with 0.2 mg/ml Lysosyme, 2.0 mM phenylmethanesulfonyl fluoride (“PMSF”), 25 μg/ml DNAse I, incubated on ice for 30 minutes and lyzed with a cell disruptor (MicroFluidics MA, USA). The lysate was clarified by centrifugation at 20,000×g for 2 hours. The protein was captured with Ni-NTA resin (Life Technologies, USA). Contaminating proteins were washed off with 25 mM Tris-HCl pH 8.3, 250 mM NaCl, 12% Glycerol and 50 mM Imidazole. Following 3× wash steps, protein was eluted step wise using a 50 mM HEPES pH 7.5, 500 mM NaCl and 400 mM Imidazole. The protein was further purified using Gel Filtration column 26/600 Superdex 200 (GE Biosciences NJ, USA) in 50 mM HEPES pH 7.5, 250 mM NaCl. The protein was aliquoted and flash-frozen in liquid Nitrogen.
Background: In Alpha technology, singlet oxygen from a donor bead excites a nearby acceptor bead.

Experiment [2] relates to MV-4-11 cells. The experiment is described as follows: Oncology cell growth assay MV-4-11 (CellTiter Glo). Particulars: Homo sapiens, MV4-11, 72 h, read-out: Cell activity (IC50 μM) MV-4-11 3d-Growth. In kind it is cell-based. From the text: Published bromodomain inhibitors JQ1 and iBET 151 have shown activity in variety of cancer cells such leukemia and lymphoma, multiple myeloma cells, NUT midline carcinoma and glioblastoma cells (Dawson M A et al. 2011; Delmore J E 2011; Chen Z et al. 2013; Filippakopoulos P et al. 2010; Mertz J A et al. 2011; Ott C J et al. 2012). In this study, we test compounds in different cancer cell lines. MV-4-11 and MOLM-13 are AML cell lines harboring a MLL-AF4 and MLL-AF9 translocation, respectively. MM.1S is a multiple myeloma cell line. SK-N-AS, IMR-32 and SK-N-BE(2) are neuroblastoma cell lines. IMR-32 and SK-N-BE(2) cell lines harbor MYCN amplifications.
MV-4-11, MM.1S, IMR-32, SK-N-AS and SK-N-BE(2) were obtained from ATCC (IL, USA) and MOLM-13 were purchased from DSMZ (Braunschweig, German). Cells are cultured as recommended by their sources. For growth inhibition studies 3000 cells are seeded in wells of a 96-well plate in 75 μL of culture media. After several hours, growth media containing compounds of formula (I) are added to the wells. Compound at a maximal concentration of 5 mM was serially diluted 1:3 for a total of 8 point titration with DMSO as a control. A 1 μL aliquot of each dilution point is added to 249 μL growth media and 75 μL is added to each well containing cells, providing 10 μM compound at the maximum concentration point. The final concentration of DMSO in all wells is 0.2%. Cells are incubated for 72 hours, and 25 μL of CellTiter Glo Reagent (Promega GA, USA) is added to each well. Plates are shaken for approximately 10 minutes and chemiluminescent signal is read on Tecan microplate reader. The measured luminescence correlates directly with cell number.
All data is normalized to the mean of eight DMSO high control wells on each plate. A four parameter curve fit of the following formula was then applied: Y=a+(b−a)/(1+(x/c)^d) Where ‘a’ is the minimum, ‘b’ is the maximum, ‘c’ is the pIC50 and ‘d’ is the Hill slope. […] Myc Reporter Assay
(ATP-based viability assays read luminescence as a measure of living cells.)

Like-named read-outs stand apart in the source and are kept apart here. Bounds are passed on as bounds.

Regarding `Cc1noc(C)c1-c1cnc2c(-c3ccccc3C(=O)O)cn(CC3CCC(F)(F)CC3)c2c1` [P-0398, 2-[1-[(4,4-difluorocyclohexyl)methyl]-6-(3,5-dimethylisoxazol-4-yl)pyrrolo[3,2-b]pyridin-3-yl]benzoic acid], the IC50 in experiment [1] and in experiment [2] was under 1 µM in each case.
In the case of `Cc1ccc(-c2cn([C@@H](C)c3ccccn3)c3cc(-c4c(C)noc4C)cnc23)cc1` [P-0900, 3,5-dimethyl-4-[3-(p-tolyl)-1-[(1S)-1-(2-pyridyl)ethyl]pyrrolo[3,2-b]pyridin-6-yl]isoxazole], the half-inhibitory concentration (IC50) – broadly, the concentration that inhibits the measured activity by half – in experiment [1] is under 1 µM; in experiment [2] (MV-4-11, 3d growth), under 1 µM.
As for `Cc1ccc(-c2cn(C(c3ccccc3)c3ccccn3)c3cc(-c4c(C)noc4C)cnc23)cc1` (centres unmarked) [P-0901, 3,5-dimethyl-4-[1-[phenyl(2-pyridyl)methyl]-3-(p-tolyl)pyrrolo[3,2-b]pyridin-6-yl]isoxazole], the IC50 in experiment [1] was under 1 µM; in experiment [2] (MV-4-11, 3d growth), under 1 µM.
Take `COC(=O)Cc1ccc(-c2cn(C(c3ccccc3)c3ccccn3)c3cc(-c4c(C)noc4C)cnc23)cc1` (centres unmarked) [P-0902, methyl 2-[4-[6-(3,5-dimethylisoxazol-4-yl)-1-[phenyl(2-pyridyl)methyl]pyrrolo[3,2-b]pyridin-3-yl]phenyl]acetate]: the half-maximal inhibitory concentration (IC50) in experiment [1] was under 1 µM; in experiment [2] (MV-4-11, 3d growth), under 1 µM.
Take `Cc1noc(C)c1-c1cnc2c(-c3ccc(CC(=O)O)cc3)cn(C(c3ccccc3)c3ccccn3)c2c1` (centres unmarked) [P-0903, 2-[4-[6-(3,5-dimethylisoxazol-4-yl)-1-[phenyl(2-pyridyl)methyl]pyrrolo[3,2-b]pyridin-3-yl]phenyl]acetic acid]: the IC50 is under 1 µM in experiment [1] and under 1 µM in experiment [2] (MV-4-11, 3d growth).
As to `COC(=O)c1ccc(-c2cn(CC3CCCCC3)c3cc(-c4c(C)noc4C)cnc23)cc1OC` [P-0904, methyl 4-[1-(cyclohexylmethyl)-6-(3,5-dimethylisoxazol-4-yl)pyrrolo[3,2-b]pyridin-3-yl]-2-methoxy-benzoate], the 50% inhibitory concentration (IC50) in experiment [1] was under 1 µM; in experiment [2] (MV-4-11, 3d growth), under 1 µM.
On to `Cc1noc(C)c1-c1cnc2c(-c3ccc(C(C)(C)C#N)cc3)cn(CC3CCC(F)(F)CC3)c2c1` [P-0905, 2-[4-[1-[(4,4-difluorocyclohexyl)methyl]-6-(3,5-dimethylisoxazol-4-yl)pyrrolo[3,2-b]pyridin-3-yl]phenyl]-2-methyl-propanenitrile], for which the half-maximal inhibitory concentration (IC50) is under 1 µM in experiment [1] and under 1 µM in experiment [2] (MV-4-11, 3d growth).
For `Cc1noc(C)c1-c1cnc2c(I)cn(C(c3ccccc3)c3ccccn3)c2c1` (centres unmarked) [P-0906, 4-[3-iodo-1-[phenyl(2-pyridyl)methyl]pyrrolo[3,2-b]pyridin-6-yl]-3,5-dimethyl-isoxazole], the IC50 is under 1 µM in experiment [1] and under 1 µM in experiment [2] (MV-4-11, 3d growth).
For `Cc1noc(C)c1-c1cnc2c(-c3ccc(C#N)nc3)cn(C(c3ccccc3)c3ccccn3)c2c1` (centres unmarked) [P-0907, 5-[6-(3,5-dimethylisoxazol-4-yl)-1-[phenyl(2-pyridyl)methyl]pyrrolo[3,2-b]pyridin-3-yl]pyridine-2-carbonitrile], the IC50 in experiment [1] is under 1 µM; in experiment [2] (MV-4-11, 3d growth), under 1 µM.
With `[2H]C([2H])([2H])c1noc(C([2H])([2H])[2H])c1-c1cnc2c(-c3ccc(C(=O)O)cc3)cn(CC3CCC(F)(F)CC3)c2c1` [P-0908, 4-[6-[3,5-bis(trideuteriomethyl)isoxazol-4-yl]-1-[(4,4-difluorocyclohexyl)methyl]pyrrolo [3,2-b]pyridin-3-yl]benzoic acid], the IC50 in experiment [1] is under 1 µM; in experiment [2] (MV-4-11, 3d growth) it was under 1 µM.
For the compound `CCOCc1ccc(-c2cn(CC3CCC(F)(F)CC3)c3cc(-c4c(C)noc4C)cnc23)cc1` [P-0909, 4-[1-[(4,4-difluorocyclohexyl)methyl]-3-[4-(ethoxymethyl)phenyl]pyrrolo[3,2-b]pyridin-6-yl]-3,5-dimethyl-isoxazole], the 50% inhibitory concentration (IC50) in experiment [1] was under 1 µM; in experiment [2] (MV-4-11, 3d growth), under 1 µM.
For the compound `Cc1noc(C)c1-c1cnc2c(-c3ccc(COC(C)(C)C)cc3)cn(CC3CCC(F)(F)CC3)c2c1` [P-0910, 4-[3-[4-(tert-butoxymethyl)phenyl]-1-[(4,4-difluorocyclohexyl)methyl]pyrrolo [3,2-b]pyridin-6-yl]-3,5-dimethyl-isoxazole], the concentration for half-maximal inhibition (IC50) in experiment [1] was under 1 µM; in experiment [2] (MV-4-11, 3d growth) it was under 1 µM.
Regarding `Cc1noc(C)c1-c1cnc2c(-c3ccc(C4(N)CC4)cc3)cn(CC3CCC(F)(F)CC3)c2c1` [P-0911, 1-[4-[1-[(4,4-difluorocyclohexyl)methyl]-6-(3,5-dimethylisoxazol-4-yl)pyrrolo[3,2-b]pyridin-3-yl]phenyl]cyclopropanamine], the half-inhibitory concentration (IC50) in experiment [1] was under 1 µM; in experiment [2] (MV-4-11, 3d growth), under 1 µM.
As for `Cc1noc(C)c1-c1cnc2c(-c3ccc(C(=O)O)cc3)cn(CC3(C)CCCCC3)c2c1` [P-0912, 4-[6-(3,5-dimethylisoxazol-4-yl)-1-[(1-methylcyclohexyl)methyl]pyrrolo [3,2-b]pyridin-3-yl]benzoic acid], the IC50 is under 1 µM in experiment [1] and under 1 µM in experiment [2] (MV-4-11, 3d growth).
As for `Cc1noc(C)c1-c1cnc2ccn(C(c3ccccc3)c3ccccn3)c2c1` (centres unmarked) [P-0913, 3,5-dimethyl-4-[1-[phenyl(2-pyridyl)methyl]pyrrolo[3,2-b]pyridin-6-yl]isoxazole], the half-maximal inhibitory concentration (IC50) in experiment [1] is under 1 µM; in experiment [2] (MV-4-11, 3d growth), under 1 µM.
As for `COC(=O)c1ccc(-c2cn(CC3(C)CCCCC3)c3cc(-c4c(C)noc4C)cnc23)cc1` [P-0914, methyl 4-[6-(3,5-dimethylisoxazol-4-yl)-1-[(1-methylcyclohexyl)methyl]pyrrolo [3,2-b]pyridin-3-yl]benzoate], the concentration for half-maximal inhibition (IC50) was under 1 µM in experiment [1] and 1 to 10 µM in experiment [2] (MV-4-11, 3d growth).
